Read-outs that look alike come from different tables or passages of the source.
How the values were obtained:
[1] = target: NMDA receptor-ionophore complex (site labeled by [3H]MK-801); experiment: Inhibition of [3H]MK-801 binding in rat cortical/hippocampal washed membrane preparations; settings: read-out: IC50 (μM) vs. [3H]MK-801; rat cortical/hippocampal washed membranes
in vivo [2] = settings: mouse, in vivo, ip
Procedure: (§1) In this assay, Frings and CF1 mice were injected with test compound and placed on a knurled rod which rotated at a speed of 6 rpm. The ability of the mice to maintain equilibrium for long periods of time was determined; those mice that were unable to maintain equilibrium on the rotorod for 1 min in each of 3 trials were considered impaired.

[3] = system: maximal electroshock-induced seizures; experiment: Maximal electroshock-induced seizures in rats; type: in vivo; settings: Rattus norvegicus, read-out: ED50, maximal electroshock-induced seizures
NMDA receptor [4] = experiment: Inhibition of NMDA/glycine-induced increases in intracellular calcium in cultured rat cerebellar granule cells (RCGC); type: cell-based; settings: NMDA/glycine-induced increases in intracellular calcium, cultured rat cerebellar granule cells; read-out: IC50 (μM) vs. NMDA
[5] = system: maximal electroshock-induced seizures; experiment: Maximal electroshock-induced seizures in mice; type: in vivo; settings: mice; for ED50: Mus musculus, ip
in vivo [6] = settings: rat, po
[7] = system: muscle relaxation and anesthesia; settings: intrathecal administration; cited from earlier work
thermal nociception [8] = type: in vivo, rats; settings: 25 mg/kg i.p.
Procedure: In this standard assay, the thermal nociceptive stimulus was 52° C. warm water with the latency to tail flick or withdrawal taken as the endpoint.

thermal nociception [9] = type: in vivo, rats; settings: 25 mg/kg i.p.; remark: listed apart in the source
Procedure: In these experiments, a 52° C. hot plate was used as the nociceptive stimulus.

motor performance = experiment: Acute motor impairment (rotorod) in mice; settings: for TD50 (motor impairment): Frings mice
Procedure: as §1

[10] = system: central muscarinic cholinergic receptor; type: binding, rat
NMDA receptor [11] = settings: rat hippocampal slices
Procedure: Glutamate-mediated transmission at synapses of Schaffer collateral fibers and CA1 pyramidal cells was measured in slices of rat brain containing the hippocampus. This assay measures electrophysiologically the postsynaptic depolarization caused by the presynaptic release of glutamate, and can readily distinguish synaptic transmission mediated by NMDA or AMPA receptors.

L-type calcium channel = system: T1, L-type calcium channel; experiment: Inhibition of KCl depolarization-induced increases in intracellular calcium in cultured rat cerebellar granule cells; type: cell-based; settings: cultured rat cerebellar granule cells; read-out: L-type calcium channel: estimated IC50, KCl depolarization-induced increases in intracellular calcium
T1 construct: L-type calcium channel: estimated IC50, KCl depolarization-induced increases in intracellular calcium; other: cultured
Source text: The ability of arylalkylamines to inhibit dihydropyridine-sensitive Ca^2+ channels was examined in cerebellar granule cells and a rat aortic smooth muscle cell line, A7r5 cells.

[12] = system: PCP-like discriminative stimulus effects; type: in vivo, rats; settings: i.p., rats
Source text: In this assay, rats who have been trained to lever press for food reinforcement must select which of two levers in their cages is correct. The only stimulus they hive for selecting the correct lever is their ability to detect whether they received a PCP or vehicle injection After about two months of training, rats become very good at discriminating PCP from vehicle injections and can then be tested with other drugs to determine if they are discriminated as PCP. When tested in this procedure, other drugs which are known to produce a PCP-like intoxication substitute for PCP. These drugs include various PCP analogs such as ketamine and the noncompetitive NMDA receptor antagonist, MK-801.

behavior [13] = experiment: Behavioral effects in conscious male NMRI mice
focal ischemia = experiment: Photothrombotic (Rose Bengal) model of focal cerebral ischemia; type: in vivo, rat; settings: 10 mg/kg i.p. at 15 min, 3 hr, and again 6 hr post-occlusion
Source text: In a third model of focal cerebral ischemia in the rat, an ischemic infarct was produced by a photothrombotic method using the dye Rose Bengal.

permanent focal ischemia = experiment: Permanent focal cerebral ischemia (middle cerebral artery occlusion, suture); type: in vivo, rat; settings: 1 mg/kg i.p. at 30 min and again 4 hr post-occlusion
Procedure: In the second study of focal cerebral ischemia in the rat, the middle cerebral artery was permanently occluded by passing a small piece of suture thread through the carotid artery to the region of the middle cerebral artery. Core body temperature was maintained at 37° C. Compound 4, 10 mg/kg i.p. administered immediately after the onset of the ischemic event, produced a statistically significant reduction in the volume of the brain infarct (20%) recorded 24 hr later.

temporary focal ischemia = experiment: Temporary focal cerebral ischemia (middle cerebral artery occlusion, suture withdrawn after 2 hr); type: in vivo, rat; settings: two doses of 1 mg/kg i.p.
Procedure: In a fourth model of focal cerebral ischemia in the rat, the middle cerebral artery was temporarily occluded by passing a small piece of suture thread through the carotid artery to the region of the middle cerebral artery. The suture thread was withdrawn after an ischemic period of 2 hr. Core body temperature was maintained at 37° C. […]

[14] = system: acetic acid-induced writhing; type: in vivo, mice; settings: 10 mg/kg i.p.
behavior [15] = experiment: Behavioral effects in conscious male Wistar rats
[16] = Motor toxicity (TD50) in rats; settings: rat, in vivo, po
serotonin uptake site = target: T2, serotonin uptake site (Rattus norvegicus, UniProt P31652); experiment: Serotonin uptake binding assay: [3H]citalopram binding to rat forebrain membranes
T2 construct: from tissue; host or cells: rat forebrain membranes (per the assay title)

behavior [17] = experiment: Behavioral effects in conscious beagle dogs
[18] = system: mean arterial blood pressure; settings: i.p.
[19] = target: T3, norepinephrine uptake site (Rattus norvegicus, UniProt Q63380); experiment: Norepinephrine uptake binding assay: [3H]desipramine binding to rat cortical membranes
T3 construct: from tissue; host or cells: rat cortical membranes (per the assay title)

[20] = system: formalin-induced flinching; type: in vivo, Sprague-Dawley rats; settings: 10 mg/kg i.p.
dopamine uptake site = target: T4, dopamine uptake site (Cavia porcellus, UniProt H0WCX4); experiment: Dopamine uptake binding assay: [3H]WIN-35,428 binding to guinea pig striatal membranes
T4 construct: from tissue; host or cells: guinea pig striatal membranes (per the assay title)

seizure threshold = experiment: i.v. Metrazol test (seizure threshold) in mice; type: in vivo; settings: 10 mg/kg i.p.
[21] = system: delayed rectifier potassium channel; experiment: Inhibition of delayed rectifier potassium channel in cultured N1E-115 neuroblastoma cells; type: cell-based; settings: read-out: Delayed rectifier potassium channel: estimated IC50
[22] = system: mean arterial pressure, heart rate, ECG; experiment: Cardiovascular activity in conscious beagle dogs
induction of LTP = system: induction of LTP; parameters: species or system rat; settings: at 100 μM
sound-induced seizures = experiment: Sound-induced seizures in Frings mice (reflex epilepsy); type: in vivo; settings: Mus musculus, Frings mice
[23] = 3 mg/kg i.v. (60 sec bolus injection)
[24] = 10 mg/kg i.v. (60 sec bolus injection)

T2 sequence (P31652 whole entry): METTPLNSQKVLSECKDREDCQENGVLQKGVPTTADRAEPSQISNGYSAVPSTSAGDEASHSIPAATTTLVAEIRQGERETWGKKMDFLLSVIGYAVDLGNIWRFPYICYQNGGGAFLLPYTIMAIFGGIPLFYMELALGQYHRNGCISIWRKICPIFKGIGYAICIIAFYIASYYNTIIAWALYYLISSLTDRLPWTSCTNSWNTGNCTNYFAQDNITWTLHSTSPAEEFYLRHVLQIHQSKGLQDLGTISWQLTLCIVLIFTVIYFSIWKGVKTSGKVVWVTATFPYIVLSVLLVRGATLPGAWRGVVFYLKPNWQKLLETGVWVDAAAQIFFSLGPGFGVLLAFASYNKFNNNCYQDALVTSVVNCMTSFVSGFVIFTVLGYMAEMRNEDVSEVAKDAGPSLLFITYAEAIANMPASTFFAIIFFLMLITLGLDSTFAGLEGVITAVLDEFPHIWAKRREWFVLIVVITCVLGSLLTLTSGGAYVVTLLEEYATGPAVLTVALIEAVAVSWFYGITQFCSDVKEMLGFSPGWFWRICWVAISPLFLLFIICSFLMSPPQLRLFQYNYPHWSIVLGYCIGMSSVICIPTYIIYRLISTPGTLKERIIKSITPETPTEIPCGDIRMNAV
T3 sequence (Q63380 1-617): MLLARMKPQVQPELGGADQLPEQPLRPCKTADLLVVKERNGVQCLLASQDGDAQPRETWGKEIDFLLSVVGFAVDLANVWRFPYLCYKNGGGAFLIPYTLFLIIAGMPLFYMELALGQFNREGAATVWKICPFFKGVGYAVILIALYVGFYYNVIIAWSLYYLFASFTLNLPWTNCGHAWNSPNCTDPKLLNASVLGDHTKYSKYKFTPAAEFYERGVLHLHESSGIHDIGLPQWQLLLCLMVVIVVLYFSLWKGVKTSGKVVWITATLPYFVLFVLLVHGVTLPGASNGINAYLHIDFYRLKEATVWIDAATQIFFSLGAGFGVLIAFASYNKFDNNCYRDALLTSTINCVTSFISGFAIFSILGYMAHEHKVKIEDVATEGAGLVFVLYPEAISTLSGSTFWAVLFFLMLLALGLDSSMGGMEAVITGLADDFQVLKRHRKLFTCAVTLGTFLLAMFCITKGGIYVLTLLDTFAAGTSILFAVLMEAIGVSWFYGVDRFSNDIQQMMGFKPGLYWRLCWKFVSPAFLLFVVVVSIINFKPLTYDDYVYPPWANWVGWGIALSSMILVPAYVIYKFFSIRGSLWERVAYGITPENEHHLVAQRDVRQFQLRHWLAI
T4 sequence (H0WCX4 1-619): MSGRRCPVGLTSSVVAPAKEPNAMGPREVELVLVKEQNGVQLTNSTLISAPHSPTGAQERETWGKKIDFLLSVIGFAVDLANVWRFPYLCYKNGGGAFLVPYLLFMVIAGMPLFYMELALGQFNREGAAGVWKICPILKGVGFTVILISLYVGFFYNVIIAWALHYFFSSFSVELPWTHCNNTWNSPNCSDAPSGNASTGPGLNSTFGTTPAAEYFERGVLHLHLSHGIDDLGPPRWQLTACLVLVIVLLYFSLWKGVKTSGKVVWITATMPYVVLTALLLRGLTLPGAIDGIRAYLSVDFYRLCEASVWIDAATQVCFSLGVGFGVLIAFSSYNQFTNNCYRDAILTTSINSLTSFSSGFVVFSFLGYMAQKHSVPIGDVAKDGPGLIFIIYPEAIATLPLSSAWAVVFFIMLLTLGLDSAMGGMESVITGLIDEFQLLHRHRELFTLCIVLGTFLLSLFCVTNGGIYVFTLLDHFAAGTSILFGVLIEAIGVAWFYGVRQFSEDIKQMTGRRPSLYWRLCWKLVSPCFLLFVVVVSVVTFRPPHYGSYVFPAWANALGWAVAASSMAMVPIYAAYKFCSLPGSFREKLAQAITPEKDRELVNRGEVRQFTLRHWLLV

## COc1cccc(C(CCN)c2cccc(F)c2)c1 (stereo not shown) [Compound 25, 3-(3-fluorophenyl)-3-(3-methoxyphenyl)-1-propylamine]
[1]
  IC50: 0.871 µM
In vivo [2]
  TD50: 32.2 mg/kg
[3]; rats, oral
  ED50: 46.4 mg/kg
NMDA receptor [4]
  IC50: 0.279 µM
[5]
  ED50: 12.5 mg/kg
In vivo [6]
  TD50: 163 to 326 mg/kg

## NCCCNCCCCNCCCNCCCN(O)CCCNC(=O)Cc1c[nH]c2ccccc12 [agatoxin-489]
[7]
  muscle relaxation and anesthesia: not

## NCCC(c1cccc(F)c1)c1cccc(F)c1 [Compound 20, 3,3-bis(3-fluorophenyl)-1-propylamine]
[1]
  IC50: 0.252 µM
Thermal nociception [8]
  analgesic activity, rat 48° C. tail flick test: no significant analgesic activity
Thermal nociception [9]
  analgesic activity, rat 52° C. hot plate test: no significant analgesic activity
Motor performance; i.p.
  TD50 (motor impairment): 19.9 mg/kg
Motor performance; oral
  TD50 (motor impairment): 21.8 mg/kg
Motor performance; mice, 30 mg/kg p.o.
  motor impairment: motor impairment
In vivo [2]
  TD50: 20.6 mg/kg
[3]; po
  ED50: 33.6 mg/kg
[10]; at 0.1 μM
  Central muscarinic cholinergic receptor: percent block of [3H]QNB binding: 8% at
[10]; at 10 μM
  Central muscarinic cholinergic receptor: percent block of [3H]QNB binding: 0.190% at
NMDA receptor [11]
  Suppression of NMDA Receptor-Mediated Synaptic Transmission (concentration which suppresses): 30 to 300 µM
L-type calcium channel
  IC50: 2200 nM
[12]
  no generalization to PCP at doses up to the behaviorally active dose of: ≤ 10 mg/kg
Behavior [13]; 8 mg/kg i.p.
  behavioral effects: excitation and increased reactivity to touch
Behavior [13]; 64 mg/kg i.p.
  behavioral effects: convulsions and death
Behavior [13]; 2 and 4 mg/kg i.p.
  behavioral effects: no behavioral effects
Behavior [13]; 16 and 32 mg/kg i.p.
  behavioral effects: excitation, Straub tail, tremor, stereotypies, hypothermia, and mydriasis
Behavior [13]; 128 and 256 mg/kg i.p.
  behavioral effects: convulsions and death
Focal ischemia
  reduction in the infarct volume: 50%
Permanent focal ischemia
  reduction in the infarct volume: 24%
Temporary focal ischemia; 2 hr after occlusion (time of reperfusion) and 6 hr later
  reduction in the infarct volume: 43%
Temporary focal ischemia; immediately after middle cerebral artery occlusion and 6 hr later
  reduction in the infarct volume: 51%
[14]
  analgesic activity against acetic acid-induced abdominal writhing: significant analgesic activity, not blocked by naloxone
Behavior [15]; 2 mg/kg i.v.
  behavioral effects: no behavioral effects
Behavior [15]; 32 mg/kg i.v.
  behavioral effects: Straub tail, convulsions, and death
Behavior [15]; doses ranging from 4 to 16 mg/kg i.v.
  behavioral effects: excitation, stereotypies, increased reactivity to touch, increased muscle tone, and tremor
[16]
  TD50: 55.9 mg/kg
Serotonin uptake site; at 0.1 μM
  Monoamine uptake binding assays: serotonin uptake binding assay, percent block: 10^g28% at
Serotonin uptake site; at 10 μM
  Monoamine uptake binding assays: serotonin uptake binding assay, percent block: 0.1^h94% at
Behavior [17]; [23]
  behavioral effects: increased motor activity, agitation and anxiousness, slight tremors, licking of the mouth, whining, and urination
Behavior [17]; [24]
  behavioral effects: dilated pupils, whole body tremors, incoordination, licking of the mouth, salivation, panting, rapid blinking of the eyes, whining, anxiousness, seizures, and death
[18]
  no significant cardiovascular activity in anesthetized rats at doses up to: ≤ 10 mg/kg
[19]; at 0.1 μM
  Monoamine uptake binding assays: norepinephrine uptake binding assay, percent block: 5% at
[19]; at 10 μM
  Monoamine uptake binding assays: norepinephrine uptake binding assay, percent block: 0.1^g58% at
[20]
  analgesic activity, rat formalin test: significant analgesic activity, not blocked by the opiate receptor antagonist naloxone
NMDA receptor [4]
  IC50: 0.07 µM
Dopamine uptake site; at 0.1 μM
  Monoamine uptake binding assays: dopamine uptake binding assay, percent block: 6% at
Dopamine uptake site; at 10 μM
  Monoamine uptake binding assays: dopamine uptake binding assay, percent block: 0.1^f81% at
[5]
  ED50: 20.1 mg/kg
[5]; oral (p.o.)
  no significant anticonvulsant activity against maximal electroshock-induced seizures at doses up to: up to 30 mg/kg
Seizure threshold
  seizure threshold, i.v. Metrazol test: an increase in seizure threshold
[21]
  IC50: 1000 to 10000 nM
[22]; 0.3 mg/kg i.v. (60 sec bolus injection)
  cardiovascular activity: no significant cardiovascular activity
[22]; 1 mg/kg i.v. (60 sec bolus injection)
  cardiovascular activity: no significant cardiovascular activity
[22]; [23]
  heart rate: transient increases in mean arterial pressure and heart rate
  mean arterial pressure: transient increases in mean arterial pressure and heart rate
[22]; [24]
  heart rate: larger magnitude and longer duration effects
  mean arterial pressure: larger magnitude and longer duration effects
Induction of LTP
  LTP Assay (block of the induction of LTP): block at 100
sound-induced seizures; ip
  ED50: 2.1 mg/kg
sound-induced seizures; oral
  ED50: 9.7 mg/kg

Reference: patent US6750244B2, “Compounds active at a novel site on receptor-operated calcium channels useful for treatment of neurological disorders and diseases” (NPS Pharmaceuticals, Inc., priority 1993, dated 2004)
